This is an account of results in patent US20230382915A1, “GCN2 AND PERK KINASE INHIBITORS AND METHODS OF USE THEREOF” (Deciphera Pharmaceuticals, LLC, priority 2021, published 2023).

For experiment [1], the system named is Follicular lymphoma cells. Kind of experiment: Cell proliferation, combination with standard of care, follicular lymphoma. The format is cell-based. The conditions noted are these: with 41 nM ibrutinib, 96 h, FIG. 6D; read-out: inhibition of cell proliferation IC50, combination treatment. Here is the method: (§1) H929, RPMI8226, GA-10 and DoHH-2 cells (catalog #CRL-9068) were obtained from the American Type Culture Collection (ATTC, Manassas, VA). H929 Cells were maintained in RPMI-1640 medium supplemented with 20% heat-inactivated fetal bovine serum (catalog #A3840002, ThermoFisher Scientific, Waltham, MA), 1% Penicillin/Streptomycin/L-Glutamine (catalog #10378016, ThermoFisher Scientific, Waltham, MA), and 0.05 mM 2-mercaptoethanol (catalog #21985-023, ThermoFisher Scientific, Waltham, MA). […]
(§2) For cell proliferation assay appropriate number of cells (Forty thousand cells for H929. Twenty thousand cells for RPMI8226 and GA-10. Eight thousand cells for DoHH-2) were seeded per well in 200 μL in respective medium were dispensed into a 96-well black clear bottom plate. […] Plates were read on a Synergy2 or equivalent reader (Biotek, Winooski VT) using an excitation of 540 nm and an emission of 600 nm. At the end of the incubation of DoHH-2, cell viability was determined using CellTiter-Glo® assay (Promega, Madison, WI). Luminescence was measured using EnVision MultiLabel Reader (PerkinElmer, Waltham, MA). Data was analyzed using GraphPad Prism software (GraphPad, San Diego, CA) to calculate IC50 values.

For another experiment, the system named is CCRF-CEM leukemia cells. Kind of experiment: CCRF-CEM ASNase cell proliferation assay. The following applies: Homo sapiens, 1 mU/mL ASNase, 72 h. The format is cell-based. Here is the method: CCRF-CEM leukemia cells (catalog #CCL-116) were obtained from the American Type Culture Collect (ATTC, Manassas, VA). Cells were grown in RPMI-1640 medium supplemented with 10% heat-inactivated fetal bovine serum (Invitrogen, Carlsbad, CA) and 1% Penicillin/Streptomycin/L-Glutamine at 37° C., 5% CO2, and 95% humidity. Cells were expanded until reaching one million cells per mL at which time they are subcultured or harvested for assay use. Ten thousand cells per well in 200 μL RPMI-1640 supplemented with 10% heat-inactivated fetal bovine serum and 1% Penicillin/Streptomycin were dispensed into a 96-well black clear bottom plate. A serial dilution of test compound and 1 mU/mL ASNase was added in triplicate and plates were incubated for 72 h at 37° C., 5% CO2, and 95% humidity. At the end of the incubation, 40 μL of a […] solution of resazurin (Sigma, St. Louis, MO) in PBS was added to each well of the plate and plates were incubated for an additional 6 h at 37° C., 5% CO2, and 95% humidity. Plates were read on a Synergy2 or equivalent reader (Biotek, Winooski VT) using an excitation of 540 nm and an emission of 600 nm. Data was analyzed using GraphPad Prism software (GraphPad, San Diego, CA) to calculate IC50 values.

Experiment [2] deals with RPMI8226 Multiple Myeloma cells. Kind of experiment: Cell proliferation, combination with standard of care, RPMI8226. The format is cell-based. The conditions noted are these: Homo sapiens, RPMI-8226; with 333 nM dexamethasone, 96 h, FIG. 6A; read-out: inhibition of cell proliferation IC50, combination treatment. Here is the method:
as §1, §2

A further experiment deals with MV-4-11 xenograft. The experiment is described as follows: MV-4-11 xenograft efficacy model. The following applies: 14 days of dosing. The format is in vivo, mice. How it is done:
The MV-4-11 xenograft model was performed in compliance with all the laws, regulations and guidelines of the National Institutes of Health (NIH) and with the approval of the Animal Care and Use Committee of Crown Bioscience (Taicang, China), an AAALAC accredited facility. Food and water was provided ad libitum. […] Female NOD/SCID (6-9 weeks old; Vital River Laboratories Research Models and Services (Beijing, China)) were inoculated subcutaneously right front flank region with five million cells in Dulbecco's Phosphate Buffered Saline:Matrigel (1:1), using a 27-gauge needle and syringe. When tumor burdens reached 150 mm 3 on average on day 7, mice were randomly assigned into groups such that the mean tumor burden for all groups was within 10% of the overall mean tumor burden for the study population. Groups were treated on days 7-21 as follows: vehicle control (dosed orally and IP to mimic combination groups) (n=10); Compound 2 dosed orally at 50 mg/kg/day of Compound 2 (n=10); Leunase (Kyowa Kirin, Japan) dosed IP at 1000 U/kg/day (n=10); Leunase (Kyowa Kirin, Japan) dosed IP at 1000 U/kg/day (n=10) and Compound 2 dosed orally at 50 mg/kg/day of Compound 2 (n=10). Tumor volume and body weight were measured three time per week. Tumor burden (mg) was estimated from caliper measurements by the formula: tumor burden (mg=mm 3)=(length×width 2)/2.

Bounds are passed on as bounds.

For `Cn1cc(-c2cccc(NS(=O)(=O)c3cc(Cl)cc(CO)c3Cl)c2F)c2c(N)ncnc21` [Example 2, N-(3-(4-amino-7-methyl-7H-pyrrolo[2,3-d]pyrimidin-5-yl)-2-fluorophenyl)-2,5-dichloro-3-(hydroxymethyl)benzenesulfonamide], the IC50 in experiment [1] was 4 nM; in the experiment on CCRF-CEM leukemia cells, no more than 100 nM; in experiment [2], 7 nM. The “mean tumor growth inhibition” value in the experiment on MV-4-11 xenograft (50 mg/kg/day combined with Leunase) was 54%. Moreover, the “effect on tumor growth, single agent” value in the experiment on MV-4-11 xenograft (50 mg/kg/day orally) is on record as “no significant effect on tumor growth”.
